Test results as given in PubChem BioAssay (NCI).
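The compound was tested at five concentrations on cells cultured in 96-well plates, with a 48-hour exposure period. Here, GI50 denotes the concentration required for 50% inhibition of growth. TGI marks complete inhibition of growth.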

Experiments:
Assay in all cases: NCI tumour cell line growth inhibition, 48 h
HT29 colon = tested on: HT29 colon
HS 578T breast = tested on: HS 578T breast
UACC-62 melanoma = tested on: UACC-62 melanoma
MOLT-4 leukemia = tested on: MOLT-4 leukemia
MDA-MB-435 = tested on: MDA-MB-435
OVCAR-8 ovarian = tested on: OVCAR-8 ovarian
NCI-H460 lung = tested on: NCI-H460 lung
NCI-H23 lung = tested on: NCI-H23 lung
SN12C renal = tested on: SN12C renal
TK-10 renal = tested on: TK-10 renal
SK-MEL-28 melanoma = tested on: SK-MEL-28 melanoma
RXF 393 renal = tested on: RXF 393 renal
HL-60(TB) leukemia = tested on: HL-60(TB) leukemia
M14 melanoma = tested on: M14 melanoma
UO-31 renal = tested on: UO-31 renal
RPMI-8226 leukemia = tested on: RPMI-8226 leukemia
SK-OV-3 ovarian = tested on: SK-OV-3 ovarian
SK-MEL-2 melanoma = tested on: SK-MEL-2 melanoma
LOX IMVI melanoma = tested on: LOX IMVI melanoma
A498 renal = tested on: A498 renal
PC-3 prostate = tested on: PC-3 prostate
SF-539 CNS = tested on: SF-539 CNS
CAKI-1 renal = tested on: CAKI-1 renal
786-0 renal = tested on: 786-0 renal
HCT-116 colon = tested on: HCT-116 colon
DU-145 prostate = tested on: DU-145 prostate
HOP-92 NSCLC = tested on: HOP-92 NSCLC
SR leukemia = tested on: SR leukemia
NCI-H522 lung = tested on: NCI-H522 lung

Cn1nc(C(F)(F)F)c(-c2cc(C(F)(F)F)cc(C(F)(F)F)c2)c1-c1ccc(OCc2ccc(Cl)cc2)cc1O
TGI (HT29 colon): 10.6 µM | GI50 (HS 578T breast): 2.19 µM | TGI (HS 578T breast): 6.78 µM | GI50 (UACC-62 melanoma): 1.45 µM | TGI (UACC-62 melanoma): 4.05 µM | GI50 (MOLT-4 leukemia): 2.61 µM | TGI (MOLT-4 leukemia): 11 µM | GI50 (MDA-MB-435): 2.54 µM | TGI (MDA-MB-435): 8.03 µM | GI50 (OVCAR-8 ovarian): 2.92 µM | TGI (OVCAR-8 ovarian): 12.1 µM | GI50 (NCI-H460 lung): 2.16 µM | TGI (NCI-H460 lung): 5.5 µM | GI50 (NCI-H23 lung): 1.64 µM | TGI (NCI-H23 lung): 6.93 µM | GI50 (SN12C renal): 1.96 µM | TGI (SN12C renal): 10.3 µM | GI50 (TK-10 renal): 3.11 µM | TGI (TK-10 renal): 11.1 µM | GI50 (SK-MEL-28 melanoma): 2.32 µM | TGI (SK-MEL-28 melanoma): 10.7 µM | GI50 (RXF 393 renal): 2.32 µM | TGI (RXF 393 renal): 6.76 µM | GI50 (HL-60(TB) leukemia): 2.08 µM | TGI (HL-60(TB) leukemia): 5.57 µM | GI50 (M14 melanoma): 2.07 µM | TGI (M14 melanoma): 5.27 µM | GI50 (UO-31 renal): 1.89 µM | TGI (UO-31 renal): 4.28 µM | GI50 (RPMI-8226 leukemia): 2.26 µM | TGI (RPMI-8226 leukemia): 7.22 µM | GI50 (SK-OV-3 ovarian): 2.82 µM | TGI (SK-OV-3 ovarian): 10.1 µM | GI50 (SK-MEL-2 melanoma): 1.73 µM | TGI (SK-MEL-2 melanoma): 4.09 µM | GI50 (LOX IMVI melanoma): 1.98 µM | TGI (LOX IMVI melanoma): 4.31 µM | GI50 (A498 renal): 1.31 µM | TGI (A498 renal): 5.13 µM | GI50 (PC-3 prostate): 1.88 µM | TGI (PC-3 prostate): 11.5 µM | GI50 (SF-539 CNS): 2.1 µM | TGI (SF-539 CNS): 5.94 µM | GI50 (CAKI-1 renal): 2.11 µM | TGI (CAKI-1 renal): 5.9 µM | GI50 (786-0 renal): 1.63 µM | TGI (786-0 renal): 3.28 µM | GI50 (HCT-116 colon): 1.62 µM | TGI (HCT-116 colon): 3.81 µM | GI50 (DU-145 prostate): 3.9 µM | TGI (DU-145 prostate): 14.8 µM | GI50 (HOP-92 NSCLC): 1.63 µM | TGI (HOP-92 NSCLC): 5.07 µM | GI50 (SR leukemia): 1.79 µM | TGI (SR leukemia): 7.51 µM | GI50 (NCI-H522 lung): 1.94 µM | TGI (NCI-H522 lung): 9.16 µM
